According to patent publication US20090246293A1 (priority 2008, published 2009):
Like-named read-outs stand apart in the source and are kept apart here.

Key:
[1] = system: Plasmopara viticola (PLASVI); format: in vivo; conditions: for Reduction in percent disease: aldehyde derivative 100 ppm with mancozeb, PLASVI, Table 15; for % disease at 500 ppm of substance alone PLASVI: substance alone 500 ppm, untreated check 95
[2] = system: Pseudoperonospora cubensis (PSPECU); conditions: in vivo
[3] = system: Pseudoperonospora cubensis (PSPECU); assay: Droplet application on cucumber leaf, growth chamber (Examples 5a-d); format: in vivo; conditions: for % disease at 100 ppm of substance alone: substance alone 100 ppm; for % disease at 500 ppm of substance alone: substance alone 500 ppm, untreated check 91%; for % disease at 1000 ppm of substance alone: substance alone 1000 ppm
Description: Examples 5a through 5d were conducted in growth chambers on cucumber plants. Cucumbers (Cucumis sativus cv Bush Pickle Hybrid #901261) were grown from seed in 5 cm by 5 cm pots containing MetroMix™ growth medium (Scotts, Marysville, Ohio) and maintained in a glasshouse with supplementary light sources to provide a 14 hour photoperiod at 24-29° C. until the plants were in the 2-3 true leaf stage of growth and the oldest leaf was fully expanded.
For examples 5a through 5d, described below, samples of mancozeb formulated as Dithane DG NT were dissolved in water to form a ½×dilution series. Mancozeb rates were 400, 200, 100 and 50 ppm. Samples of various aldehydes, amino acids, carboxylic acids, amines and alcohols were dissolved in acetone and then mixed with aqueous solutions of mancozeb. Attractant rates in the dilute solutions were 100, 200, 500 or 1000 ppm, depending on the experiment.
Mixtures of attractant or attractant derivative plus mancozeb or mancozeb alone were applied to cucumber as a row of 5 or 7.5 ul droplets using a multi-channel pipetting device. Five droplets spaced 1 cm apart were placed along the mid-rib of the expanded cucumber leaf with the first droplet being positioned at least 1-cm from the leaf apex. Each treatment was replicated three or four times, depending on the experiment. Two to three hours after applying the treatments when droplets had dried, plants were inoculated with a suspension of sporangia of a Pseudoperonospora cubensis (PSPECU) and incubated as described in the methods for sprayed tests. When symptoms were well developed in untreated check plants, the experiment was assessed visually using a template 2 cm wide and 7 cm long with the long axis centered on the mid-rib of the treated leaf.
Reduction in percent disease was calculated by subtracting percent disease on plants receiving a mixture of mancozeb plus the specified test substance from percent disease on plants receiving mancozeb alone. The results for examples 5a-5d are shown below in Tables 7-10; the reduction in percent disease was indicated as follows: […]

[4] = system: Phytophthora infestans (PHYTIN); format: in vivo; conditions: for % disease at 500 ppm of substance alone PHYTIN: substance alone 500 ppm, untreated check 95
[5] = substance 100 ppm with mancozeb 200 ppm vs mancozeb alone, Table 9
[6] = substance 500 ppm with mancozeb 200 ppm vs mancozeb alone, Table 8
[7] = substance 500 ppm with mancozeb 6.25 ppm (Dithane DGNT), foliar spray, inoculated 2 to 3 hours after treatment
[8] = substance 500 ppm with mancozeb 25 ppm (Dithane DGNT), foliar spray, inoculated 2 to 3 hours after treatment
[9] = substance 200 ppm with mancozeb 50 ppm vs mancozeb alone, cucumber
[10] = substance 1000 ppm with mancozeb 50 ppm vs mancozeb alone, cucumber
[11] = aldehyde derivative 100 ppm with mancozeb, Table 17
[12] = substance 100 ppm with mancozeb 200 ppm vs mancozeb alone, Table 10
[13] = fungicide with Formulation I at 100 ppm, Table 19

## CCCCCCCC(=O)N/N=C/CC(C)C [Compound K]
[1]
  Reduction in percent disease: xx (21-35% reduction in percent disease)
[2]
  Reduction in percent disease: xx (key: x: 0-20% reduction in percent disease; xx: 21-35% reduction in percent disease; xxx: 36-50% reduction in percent disease; xxxx: >50% reduction in percent disease)

## CCCCCCCCCCCCCCCCCC(=O)NN=CCC(C)C [Compound L]
[1]
  Reduction in percent disease: xxx (36-50% reduction in percent disease)
[2]
  Reduction in percent disease: xx (key: x: 0-20% reduction in percent disease; xx: 21-35% reduction in percent disease; xxx: 36-50% reduction in percent disease; xxxx: >50% reduction in percent disease)

## CCCC(=O)N/N=C/CC(C)C [Compound M]
[1]
  Reduction in percent disease: xx (21-35% reduction in percent disease)
[2]
  Reduction in percent disease: xxx (key: x: 0-20% reduction in percent disease; xx: 21-35% reduction in percent disease; xxx: 36-50% reduction in percent disease; xxxx: >50% reduction in percent disease)

## CC(C)=CC=O [3-methyl-2-butenaldehyde]
[3]; [5]
  Reduction in % Disease: x (0-20% reduction in percent disease)
[3]; [6]
  Reduction in % Disease: x (0-20% reduction in percent disease)
[3]; untreated check 92%, Table 9
  % disease at 100 ppm of substance alone: 100%
[3]
  % disease at 500 ppm of substance alone: 81%
[1]; [7]
  Reduction in percent disease PLASVI: xxx (36-50% reduction in percent disease)
[1]
  % disease at 500 ppm of substance alone PLASVI: 95%
[4]; [8]
  Reduction in percent disease PHYTIN: x (0-20% reduction in percent disease)
[4]
  % disease at 500 ppm of substance alone PHYTIN: 95%

## CC(C)CCO [Isoamyl alcohol]
[3]; [9]
  Reduction in % Disease: xx (21-35% reduction in percent disease)
[3]; [10]
  Reduction in % Disease: x (0-20% reduction in percent disease)
[3]; untreated check 100%
  % disease at 1000 ppm of substance alone: 100%

## CC(C)C/C=N/NC(=O)c1ccc(O)cc1 [Compound V]
[4]; [11]
  Reduction in percent disease PHYTIN: xx (21-35% reduction in percent disease)

## CC(C)CO [Isobutanol]
[3]; [9]
  Reduction in % Disease: x (0-20% reduction in percent disease)
[3]; [6]
  Reduction in % Disease: x (0-20% reduction in percent disease)
[3]; [10]
  Reduction in % Disease: xxxx (>50% reduction in percent disease)
[3]
  % disease at 500 ppm of substance alone: 95%
[3]; untreated check 100%
  % disease at 1000 ppm of substance alone: 100%
[1]; [7]
  Reduction in percent disease PLASVI: xxxx (>50% reduction in percent disease)
[1]
  % disease at 500 ppm of substance alone PLASVI: 78%
[4]; [8]
  Reduction in percent disease PHYTIN: xxx (36-50% reduction in percent disease)
[4]
  % disease at 500 ppm of substance alone PHYTIN: 95%

## CC(C)C/C=N/N1CCCCC1 [Compound Z]
[4]; [11]
  Reduction in percent disease PHYTIN: xx (21-35% reduction in percent disease)

## CC(C)C/C=N/NC(=O)c1ccccc1 [Compound I]
[2]
  Reduction in percent disease: xx (key: x: 0-20% reduction in percent disease; xx: 21-35% reduction in percent disease; xxx: 36-50% reduction in percent disease; xxxx: >50% reduction in percent disease)

## CC(=O)CC(C)C [4-methyl-2-pentanone]
[3]; [12]
  Reduction in % Disease: x (0-20% reduction in percent disease)
[3]; untreated check 100%, Table 10
  % disease at 100 ppm of substance alone: 93%

## CCC(C)C=O (centres unmarked) [2-methylbutyraldehyde]
[3]; [5]
  Reduction in % Disease: x (0-20% reduction in percent disease)
[3]; [6]
  Reduction in % Disease: x (0-20% reduction in percent disease)
[3]; untreated check 92%, Table 9
  % disease at 100 ppm of substance alone: 98%
[3]
  % disease at 500 ppm of substance alone: 74%
[1]; [7]
  Reduction in percent disease PLASVI: x (0-20% reduction in percent disease)
[1]
  % disease at 500 ppm of substance alone PLASVI: 95%
[4]; [8]
  Reduction in percent disease PHYTIN: x (0-20% reduction in percent disease)
[4]
  % disease at 500 ppm of substance alone PHYTIN: 95%

## N[C@@H](CCC(=O)O)C(=O)O [Glutamic acid]
[3]; [9]
  Reduction in % Disease: xx (21-35% reduction in percent disease)
[3]; [6]
  Reduction in % Disease: x (0-20% reduction in percent disease)
[3]; [10]
  Reduction in % Disease: x (0-20% reduction in percent disease)
[3]
  % disease at 500 ppm of substance alone: 90%
[3]; untreated check 100%
  % disease at 1000 ppm of substance alone: 100%
[1]; [7]
  Reduction in percent disease PLASVI: xxx (36-50% reduction in percent disease)
[1]
  % disease at 500 ppm of substance alone PLASVI: 93%
[4]; [8]
  Reduction in percent disease PHYTIN: xx (21-35% reduction in percent disease)
[4]
  % disease at 500 ppm of substance alone PHYTIN: 95%

## CC(C)CC=NOCc1ccccc1 [Compound Y]
[4]; [11]
  Reduction in percent disease PHYTIN: x (0-20% reduction in percent disease)

## CCCCC=O [Valeraldehyde]
[3]; [5]
  Reduction in % Disease: x (0-20% reduction in percent disease)
[3]; [6]
  Reduction in % Disease: x (0-20% reduction in percent disease)
[3]; untreated check 92%, Table 9
  % disease at 100 ppm of substance alone: 93%
[3]
  % disease at 500 ppm of substance alone: 94%
[1]; [7]
  Reduction in percent disease PLASVI: x (0-20% reduction in percent disease)
[1]
  % disease at 500 ppm of substance alone PLASVI: 95%
[4]; [8]
  Reduction in percent disease PHYTIN: x (0-20% reduction in percent disease)
[4]
  % disease at 500 ppm of substance alone PHYTIN: 95%

## CC(C)(C)CC=O [3,3-dimethylbutyraldehyde]
[3]; [5]
  Reduction in % Disease: x (0-20% reduction in percent disease)
[3]; [6]
  Reduction in % Disease: x (0-20% reduction in percent disease)
[3]; untreated check 92%, Table 9
  % disease at 100 ppm of substance alone: 96%
[3]
  % disease at 500 ppm of substance alone: 75%
[1]; [7]
  Reduction in percent disease PLASVI: x (0-20% reduction in percent disease)
[1]
  % disease at 500 ppm of substance alone PLASVI: 87%
[4]; [8]
  Reduction in percent disease PHYTIN: x (0-20% reduction in percent disease)
[4]
  % disease at 500 ppm of substance alone PHYTIN: 95%

## O=CCC1CC1 [Cyclopropylacetaldehyde]
[3]; [5]
  Reduction in % Disease: x (0-20% reduction in percent disease)
[3]; [6]
  Reduction in % Disease: x (0-20% reduction in percent disease)
[3]; untreated check 92%, Table 9
  % disease at 100 ppm of substance alone: 85%
[3]
  % disease at 500 ppm of substance alone: 90%
[1]; [7]
  Reduction in percent disease PLASVI: xx (21-35% reduction in percent disease)
[1]
  % disease at 500 ppm of substance alone PLASVI: 95%
[4]; [8]
  Reduction in percent disease PHYTIN: x (0-20% reduction in percent disease)
[4]
  % disease at 500 ppm of substance alone PHYTIN: 95%

## CC(C)CCN [Isoamyl amine]
[3]; [9]
  Reduction in % Disease: xxx (36-50% reduction in percent disease)
[3]; [10]
  Reduction in % Disease: xxx (36-50% reduction in percent disease)
[3]; untreated check 100%
  % disease at 1000 ppm of substance alone: 100%

## CC(C)C/C=N/N(C)c1ccccc1 [Compound AA]
[4]; [11]
  Reduction in percent disease PHYTIN: x (0-20% reduction in percent disease)

## CON=C(C(=O)OC)c1ccccc1CON=C(C)c1cccc(C(F)(F)F)c1 [Trifloxystrobin, reference compound]
[1]; [13]
  Reduction in percent disease PLASVI: x (0-20% reduction in percent disease)
[4]; [13]
  Reduction in percent disease PHYTIN: x (0-20% reduction in percent disease)

## CC(C)C=O [Isobutyraldehyde]
[3]; [5]
  Reduction in % Disease: x (0-20% reduction in percent disease)
[3]; untreated check 92%, Table 9
  % disease at 100 ppm of substance alone: 97%

## CCC(C)C(C)=O (centres unmarked) [3-methyl-2-pentanone]
[3]; [12]
  Reduction in % Disease: x (0-20% reduction in percent disease)
[3]; untreated check 100%, Table 10
  % disease at 100 ppm of substance alone: 100%

## O=[N+]([O-])c1cc(C(F)(F)F)c(Cl)c([N+](=O)[O-])c1Nc1ncc(C(F)(F)F)cc1Cl [Fluazinam, reference compound]
[1]; [13]
  Reduction in percent disease PLASVI: xxx (36-50% reduction in percent disease)
[4]; [13]
  Reduction in percent disease PHYTIN: xxx (36-50% reduction in percent disease)

## C=CCON=CCC(C)C [Compound X]
[4]; [11]
  Reduction in percent disease PHYTIN: xx (21-35% reduction in percent disease)

## CC(C)CCC(=O)O [Isocaproic acid]
[3]; [9]
  Reduction in % Disease: xxx (36-50% reduction in percent disease)
[3]; [6]
  Reduction in % Disease: x (0-20% reduction in percent disease)
[3]; [10]
  Reduction in % Disease: xxx (36-50% reduction in percent disease)
[3]
  % disease at 500 ppm of substance alone: 88%
[3]; untreated check 100%
  % disease at 1000 ppm of substance alone: 100%
[1]; [7]
  Reduction in percent disease PLASVI: xxx (36-50% reduction in percent disease)
[1]
  % disease at 500 ppm of substance alone PLASVI: 93%
[4]; [8]
  Reduction in percent disease PHYTIN: xxx (36-50% reduction in percent disease)
[4]
  % disease at 500 ppm of substance alone PHYTIN: 95%

## N[C@@H](CC(=O)O)C(=O)O [Aspartic acid]
[3]; [9]
  Reduction in % Disease: xx (21-35% reduction in percent disease)
[3]; [10]
  Reduction in % Disease: xx (21-35% reduction in percent disease)
[3]; untreated check 100%
  % disease at 1000 ppm of substance alone: 100%

## CC(C)C/C=N/N(Cc1ccccc1)Cc1ccccc1 [Compound W]
[4]; [11]
  Reduction in percent disease PHYTIN: xx (21-35% reduction in percent disease)

## CCC(C=O)CC [2-ethylbutyraldehyde]
[3]; [5]
  Reduction in % Disease: x (0-20% reduction in percent disease)
[3]; untreated check 92%, Table 9
  % disease at 100 ppm of substance alone: 65%

## CC(C)CC(=O)O [Isovaleric acid]
[3]; [9]
  Reduction in % Disease: xx (21-35% reduction in percent disease)
[3]; [10]
  Reduction in % Disease: xx (21-35% reduction in percent disease)
[3]; untreated check 100%
  % disease at 1000 ppm of substance alone: 100%
